In patent US20100286164A1, “SUBSTITUTED ARYL ALKYLAMINO-OXY-ANALOGS AND USES THEREOF” (The Brigham and Women's Hospital, Inc, priority 2007, published 2010):

Columns and labels:
Assay type in all cases: biochemical
[1] = biological target: T1, γ-secretase (Aβ1-40 production) (Homo sapiens, UniProt P49768); experiment: γ-Secretase assay, Aβ1-40 ELISA; conditions: 100 μM
T1 construct: made in house; host or cells: S-1 CHO cell line (Chinese hamster ovary)
Procedure: (§1) Purification of γ-Secretase and in Vitro γ-Secretase Assays—The following procedures can be used to isolate γ-secretase and measure its enzymatic activity. The multistep procedure for the high grade purification of human γ-secretase from the S-1 cells is performed as described previously (Fraering, P. C., et al. (2004) Biochemistry 43, 9774-9789). In vitro γ-secretase assays using the recombinant APP-based substrate C100FLAG and the recombinant Notch-based substrate N100FLAG are performed as reported previously (Esler, W. P., Kimberly, W. T., Ostaszewski, B. L., Ye, W., Diehl, T. S., Selkoe, D. J., and Wolfe, M. S. (2002) Proc. Natl. Acad. Sci. U.S.A. 99, 2720-2725, Kimberly, W. T., et al. (2003) Biochemistry 42, 137-144). Basically, the proteolytic reaction mixtures contain C100FLAG and N100FLAG substrate at a concentration of 1 μm, purified γ-secretase solubilized in 0.2% CHAPSO/HEPES, pH 7.5, at 10-fold dilution from stock (stock=the M2 anti-FLAG-eluted fraction in the purification protocol from S-1 cells (Fraering, P. C., et al. (2004) Biochemistry 43, 9774-9789)), 0.025% phosphatidylethanolamine (PE), and 0.10% phosphatidylcholine (PC). All the reactions are stopped by adding 0.5% SDS, and the samples are assayed for Aβ40 and Aβ42 by ELISA as described (Xia, W., Zhang, J., Ostaszewski, B. L., Kimberly, W. T., Seubert, P., Koo, E. H., Shen, J., and Selkoe, D. J. (1998) Biochemistry 37, 16465-16471). The capture antibodies are 2G3 (to Aβ residues 33-40) for the Aβ40 species and 21F12 (to Aβ residues 33-42) for the Aβ42 species.
(§2) Naphthyl Amine Alcohol Analogs and Assay Data—Compounds listed in Table 2 may be assayed as described herein (e.g., in Examples 3 and 4) and the specificity may be evaluated by comparing the relative inhibitions of C-100 Flag and N-100 Flag cleavage. The potency of the inhibitor may be evaluated with an Aβ1-40 ELISA assay (e.g., using an Aβ40 ELISA kit available from Invitrogen, Carlsbad, Calif.). […] The following table indicates the properties of certain compounds of the invention that were assayed as described herein. (INH=Inhibits)

[2] = biological target: T2, γ-secretase (C100FLAG APP-based substrate) (Homo sapiens, UniProt P49768); experiment: In vitro γ-secretase assay, C-100 Flag (APP-based substrate) cleavage; conditions: effect on C-100 Flag cleavage; compounds tested in vitro at 100 μM
T2 construct: made in house; host or cells: S-1 CHO cell line (Chinese hamster ovary)
Procedure: as §1
(§3) Western Blotting and Antibodies—The following assay can be used to determine the extent to which the compounds of interest modulate the cleavage of APP and the Notch receptor. For Western analysis of PS1-NTF, PS1-CTF, Aph1α2-HA, FLAG-Pen-2, and NCT-GST, the samples are run on 4-20% Tris-glycine polyacrylamide gels, transferred to polyvinylidene difluoride, and can be probed with Ab14 (for PS1-NTF, 1:2000; a gift of S. Gandy), 13A11 (for PS1-CTF, 5 μg/ml; a gift of Elan Pharmaceuticals), 3F10 (for Aph1α2-HA, 50 ng/ml; Roche Applied Science), anti-FLAG M2 (for FLAG-Pen-2, 1:1000; Sigma), or αGST antibodies (for NCT-GST, 1:3000; Sigma). Samples from the γ-secretase activity assays (above) are run on 4-20% Tris-glycine gels and can be transferred to polyvinylidene difluoride membranes to detect AICD-FLAG with anti-FLAG M2 antibodies (1:1000, Sigma) and NICD-FLAG with Notch Ab1744 antibody (1:1000, Cell Signaling Technology), which is selective for the N terminus of NICD; the same samples are transferred to nitrocellulose membranes to detect Aβ with the anti-Aβ 6E10 antibody. Levels of AICD-FLAG and NICD-FLAG are estimated by densitometry using AlphaEase/Spot Denso (Alpha Innotech Corp.).
as §2

[3] = biological target: T3, γ-secretase (N100FLAG Notch-based substrate) (Homo sapiens, UniProt P49768); experiment: In vitro γ-secretase assay, N-100 Flag (Notch-based substrate) cleavage; conditions: effect on N-100 Flag cleavage; compounds tested in vitro at 100 μM
T3 construct: made in house; host or cells: S-1 CHO cell line (Chinese hamster ovary)
Procedure: as §1, §3, §2

inhibition at 100 µM [1] [%]	γ-Secretase Assay C-100 Flag [2]	γ-Secretase Assay N-100 Flag [3]	γ-Secretase Assay ELISA % Inhibition [100 μM] Aβ1-40 [1] [%]	SMILES
60	Inh	Enh	–	CC(C)N(CCC(O)c1ccc2ccccc2c1)Cc1ccc(Cl)c(Cl)c1 (centres unmarked) [Example 17]
54	Inh	Inh	–	CC(C)N(CCC(O)c1ccc2ccccc2c1)Cc1cc(F)cc(F)c1 (centres unmarked) [Example 31]
64	Inh	Enh	–	CC(C)N(CCC(O)c1ccc2ccccc2c1)Cc1ccc(F)c(F)c1 (centres unmarked) [Example 18]
0	Inh	Inh	–	CC(C)N(Cc1ccccc1)CC(O)c1ccc2ccccc2c1 (centres unmarked) [Example 82]
0	–	Inh	–	CC(C)N(CC[C@@H](O)c1ccc2ccccc2c1)Cc1ccccc1 [Example 75]
16	Inhibits (Inh)	Enhances (Enh)	–	CC(C)N(CCC(O)c1ccc2ccccc2c1)Cc1ccccc1 (centres unmarked) [Example 1, 3-(benzyl(isopropyl)amino)-1-(naphthalen-2-yl)propan-1-ol]

Further lines, the compound ahead of its results:

SMILES	inhibition at 100 µM [1] [%]	γ-Secretase Assay C-100 Flag [2]	γ-Secretase Assay N-100 Flag [3]	γ-Secretase Assay ELISA % Inhibition [100 μM] Aβ1-40 [1] [%]
CCOc1ccc(NCCC(O)c2ccc3ccccc3c2)cc1 (centres unmarked) [Example 32]	40	Inh	Inh	–
OC(CCN1CCN(c2ccc(F)cc2)CC1)c1ccc2ccccc2c1 (centres unmarked) [Example 14, 3-(4-(4-fluorophenyl)piperazin-1-yl)-1-(naphthalen-2-yl)propan-1-ol]	61	Inh	Enh	–
CC(C)N(CCC(O)c1cccc2ccccc12)Cc1ccccc1 (centres unmarked) [Example 19]	46	Inh	Enh.	–
Cc1cccc(C)c1C(O)CCN(Cc1ccccc1)C(C)C (centres unmarked) [Example 56]	20	–	Inh	–
OC(CCN1CCN(c2ccccc2)CC1)c1ccc2ccccc2c1 (centres unmarked) [Example 3]	0	–	Enh	–
CC(C)N(CCC(O)c1ccc2ccccc2c1)c1ccccc1 (centres unmarked) [Example 20]	68	Inh	Inh	–
O=[N+]([O-])c1cc(NCCC(O)c2ccc3ccccc3c2)ccc1Cl (centres unmarked) [Example 83]	46	Inh	Inh	–
CC(C)N(CCC(O)c1ccc(C(F)(F)F)cc1)Cc1ccccc1 (centres unmarked) [Example 41]	27	–	Enh	–
OC(CCNc1ccc(F)c(Cl)c1)c1ccc2ccccc2c1 (centres unmarked) [Example 33]	40	Inh	Inh	–
CC(C)N(CCC(O)c1cc(C(F)(F)F)cc(C(F)(F)F)c1)Cc1ccccc1 (centres unmarked) [Example 57]	47	–	Inh	–
CN(CCC(O)c1ccc2ccccc2c1)Cc1ccccc1 (centres unmarked) [Example 44]	–	–	Enh	56
OC(CCN1CCN(c2cccc(C(F)(F)F)c2)CC1)c1ccc2ccccc2c1 (centres unmarked) [Example 13]	38	Enh	Enh	–
OC(CN1CCN(c2ccccc2)CC1)c1ccc2ccccc2c1 (centres unmarked) [Example 81]	0	–	Enh	–
